The subject of test [1] is G. lamblia WBC6 trophozoites. Nature of the test: G. lamblia trophozoite proliferation assay (resazurin). Particulars: for pEC50: G. lamblia WBC6 trophozoites, 72 h anaerobic culture, read-out: Giardia cells EC50; for Effect on Giardia trophozoite proliferation: 50 μM inhibitor, 72 h culture, Fig 3B. Type of test: cell-based, Giardia lamblia. On the procedure: G. lamblia WBC6 (ATCC catalogue number 50803) trophozoites were grown under microaerophilic conditions in 11 ml culture tubes (Nunc, cat. 156758) containing TYI-S- 33 medium supplemented with 10% bovine serum and bovine bile according to standard protocols. Parasites were harvested by chilling the tubes on ice for 30 minutes to detach adherent cells and collected by centrifugation (900 x g, 10 minutes, 4°C). Encystation was induced using the two-step method as described previously by cultivating the trophozoites in bile-free medium for 44 hours and thereafter in medium (pH 7.85) containing porcine bile.
Test compounds were dissolved in DMSO and serially diluted in Giardia culture medium. G. lamblia WBC6 trophozoites were grown until adherent cells reached a confluency close to 100%. Cells were then chilled on ice for 20 min and adherent parasites were detached from the culture tube. Cultures were diluted to 5x10^3 cells/ml in growth medium (room temperature) and 100 μl aliquots were immediately added to wells of 96-well plates preloaded with the same volume of test compound dilutions. DMSO (solvent) controls were always included. Plates were incubated for 72 h at 37°C in a humid chamber with an anaerobic atmosphere. Adherent cells were then washed twice with 200 μl PBS before adding 200 μl of PBS containing […] resazurin and 1% glucose. After incubation for 4 h at 37°C, plates were read on a fluorescence plate reader (Wallac 1420 VICTOR^2, PerkinElmer) with excitation and emission wavelengths of 544 nm and 590 nm, respectively. Data were analyzed with the GraphPad Prism software package using a sigmoidal dose-response model for regression. All assays were done in quadruplicate and at least three independent experiments were performed.

Test [2] deals with recombinant GlPDE(aa588-1371) (Giardia intestinalis, UniProt A0A644EZ75). Nature of the test: biochemical. Type of test: biochemical. The following applies: for Activity against recombinant GlPDE in profiling assay: inhibitor at 100 μM, Fig 3A. An excerpt: The DNA sequence comprising the catalytic domain (residues Gly-983 –Glu-1371) was amplified by PCR using genomic DNA of G. lamblia WBC6 and the primer pair GlPDE1cat-for (5'-[…]-3') and GlPDE1cat-rev (5'-[…]-3'). The PCR product was then cloned into the TA vector pCRII-TOPO (Invitrogen) yielding plasmid pCR-GlPDE1cat. To get a plasmid containing the sequence coding for the full length protein lacking the N-terminal transmembrane helices (Met-588 –Glu-1371) of GlPDE, a further PCR product was produced using the primer pair GlPDE1-Mfor (5'-[…]-3') and GlPDE1-LMrev (5'-[…]-3') and was cloned via NdeI (bold) and BsrGI into pCR-GlPDE1cat resulting in plasmid pCR-GlPDE1M. The inserts of both plasmid constructs were verified by sequencing and subcloned into two variants of the yeast expression vector pLT1 [42] using the restriction enzymes SalI (italic)/EcoRV or NdeI (bold)/EcoRV. The EcoRV cloning site originated from the multiple cloning site of the pCRII-TOPO vector. One pLT1 variant directs the expression of the Giardia protein alone, whereas the other adds an N-terminal hemagglutinin (HA) tag to allow detection of the recombinant protein. Transformation of the constructs into the PDE-deficient S. cerevisiae strain PP5 (MATa leu2-3 leu2- 112 ura3-52 his3-532 his4 cam pde1::URA3 pde2::HIS3) was carried out as described previously.
Yeast cell pellets were created exactly as described previously. Briefly, yeast was grown at 30°C in SC-leu medium to end log phase and thereafter again for 3.5 h in YPD to maximize protein expression. Washed cells were frozen in liquid nitrogen and stored at -70°C. Frozen cell pellets were thawed on ice and resuspended in an equal volume of ice-cold extraction buffer (50 mM HEPES, pH 7.5, 100 mM NaCl, 1x Complete protease inhibitor cocktail without EDTA (Roche Applied Science)). Cell lysates were produced by three passages through a high pressure homogenizer (French press at 20’000 psi, 4°C). Unbroken cells and cell debris were removed by centrifugation for 20 min at 16’000 RCF at 4°C. 25% glycerol was added to the cleared supernatant. Aliquots were snap-frozen in liquid nitrogen and stored at -70°C for subsequent PDE activity assays.
PDE activity was determined by a modification of the two-step procedure of Thompson and Appleman as described previously. In all reactions no more than 20% of the substrate was hydrolyzed. […] Inhibitors were dissolved and diluted in dimethyl sulfoxide (DMSO), with 1% final DMSO concentration in the reaction mixes. Control reactions with DMSO alone were always included. Data were analyzed using the GraphPad Prism software package (GraphPad, San Diego).

For another test, the system named is TbrPDEB1 and TbrPDEB2. Set-up: method as in PMID 22291195, PMID 22963052. The following applies: cited from earlier work.

The values below come from publication PMC5617230, “The single cyclic nucleotide-specific phosphodiesterase of the intestinal parasite Giardia lamblia represents a potential drug target” (PLoS Neglected Tropical Diseases, 2017).

A word on the pEC50: it is −log10 of the EC50, conventionally taken in molar units. A word on the pIC50: it is the negative decadic logarithm of the IC50, by convention in mol/L.

Structures are written as SMILES. pEC50, pIC50: −log10 of the molar value. Where a name gives a salt, the structure may show the parent alone. Read-outs that look alike come from different tables or passages of the source.

With `CCCCCC[C@@H]([C@@H](C)O)n1cnc2c(N)ncnc21` (racemic) [EHNA, erythro-9-(2-hydroxy-3-nonyl)adenine], in test [1], the pEC50 was < 4.30. Further, the pIC50 in test [2] (read-out: Giardia PDE IC50) is < 4.00.
Take `COCc1nc2c([nH]1)c(=O)n(C)c(=O)n2CC(C)C` [8'-MM-IBMX, 8-methoxymethyl-IBMX]: the pEC50 in test [1] is < 4.30. Also, the pIC50 in test [2] (read-out: Giardia PDE IC50) is < 4.00.
On to `COc1ccc(Cc2nn3c([C@@H](CCCc4ccccc4)[C@@H](C)O)nc(C)c3c(=O)[nH]2)cc1OC` [BAY 60–7550], for which the pEC50 in test [1] was ~4.30.
Regarding `C[C@H](Cc1nc2c(cnn2-c2ccccc2Cl)c(=O)[nH]1)C(F)(F)F` [BAY 73–6691], in test [1], the negative-log EC50 (pEC50) was < 4.30. Further, in test [2] (read-out: Giardia PDE IC50), the negative logarithm of the IC50 (pIC50) is < 4.00.
On to `Cc1ccc([N+](=O)[O-])cc1S(=O)(=O)N(C)C` [BRL 50481], for which the pIC50 in test [2] (read-out: Giardia PDE IC50) is < 4.00.
As to `CN(C(=O)CCCOc1ccc2[nH]c(=O)ccc2c1)C1CCCCC1` [Cilostamide, cilostamide], the negative logarithm of the EC50 (pEC50) in test [1] (Giardia duodenalis) was < 4.30. In addition, the pIC50 in test [2] (read-out: Giardia PDE IC50) was < 4.00.
Take `OCCN(CCO)c1nc(N2CCCCC2)c2nc(N(CCO)CCO)nc(N3CCCCC3)c2n1` [Dipyridamole, dipyridamole]: the negative logarithm of the EC50 (pEC50) in test [1] (Giardia duodenalis) is < 4.30. Further, in test [2], the pIC50 is 4.58 and the “Activity against recombinant GlPDE in profiling assay” value (“Activity against recombinant GlPDE” for short) was “showed promising activity against GlPDE”.
On to `CCOC(=O)c1cnc2c(cnn2CC)c1NN=C(C)C` [Etazolate, etatolate], for which the negative logarithm of the EC50 (pEC50) in test [1] (Giardia duodenalis) is < 4.30. Moreover, the negative-log IC50 (pIC50) in test [2] (read-out: Giardia PDE IC50) is ~4.00.
On to `CC(C)Cn1c(=O)n(C)c(=O)c2[nH]cnc21` [IBMX, isobutyl-methyl-xanthine], for which, in test [1] (Giardia duodenalis), the pEC50 was < 4.30. Moreover, the negative logarithm of the IC50 (pIC50) in test [2] (read-out: Giardia PDE IC50) was < 4.00.
As for `Cc1[nH]c(=O)c(C#N)cc1-c1ccncc1` [Milrinone, milrinone], the negative logarithm of the EC50 (pEC50) in test [1] (Giardia duodenalis) is < 4.30. Besides, in test [2], the negative logarithm of the IC50 (pIC50) was < 4.00.
In the case of `COc1cc2ncnc(N3CC[C@@H](Oc4cnc5ccccc5n4)C3)c2cc1OC` [NEU28], the pEC50 in test [1] is 4.51. For the same compound, the negative logarithm of the IC50 (pIC50) in test [2] (read-out: Giardia PDE IC50) was ~4.00.
As to `COc1ccc(C2=NN(C3CCCCCC3)C(=O)[C@@H]3CC=CC[C@H]23)cc1OCCCCOc1ccc(-c2nn[nH]n2)cc1` [NPD-001], in test [1], the “Effect on Giardia trophozoite proliferation” value (“Effect” for short) was “also inhibited Giardia trophozoite proliferation” and the pEC50 was 5.16. For the same compound, the “Activity against recombinant GlPDE” value in test [2] is “showed promising activity against GlPDE”. The pIC50 in test [2] (read-out: Giardia PDE IC50) is 6.10. The “Potency against trypanosomal PDEs” value in the test on TbrPDEB1 and TbrPDEB2 is on record as “potencies in the nanomolar range”.
As to `COc1ccc(Cc2nccc3cc(OC)c(OC)cc23)cc1OC` [Papaverine, papaverine], the negative logarithm of the EC50 (pEC50) in test [1] (Giardia duodenalis) was < 4.30. For the same compound, in test [2], the negative logarithm of the IC50 (pIC50) was < 4.00.
As for `CC(=O)CCCCn1c(=O)c2c(ncn2C)n(C)c1=O` [Pentoxifylline, pentoxifylline], the negative logarithm of the EC50 (pEC50) in test [1] (Giardia duodenalis) is < 4.30.
With `COc1ccc(C(=O)Nc2c(Cl)cncc2Cl)cc1OC1CCCC1` [Piclamilast, piclamilast], the “Effect” value in test [1] is given as “also inhibited Giardia trophozoite proliferation”. The pEC50 in test [1] (Giardia duodenalis) was 4.92. Besides, in test [2], the pIC50 is 4.95 and the “Activity against recombinant GlPDE” value is “showed promising activity against GlPDE”.
`CCCCOc1cc(CC2CNC(=O)N2)ccc1OC` (stereo not drawn) [Ro20-1724]: the pEC50 in test [1] was < 4.30. Further, the pIC50 in test [2] (read-out: Giardia PDE IC50) was < 4.00.
Take `O=C(Nc1c(Cl)cncc1Cl)c1ccc(OC(F)F)c(OCC2CC2)c1` [Roflumilast, roflumilast]: the “Effect” value in test [1] is “also inhibited Giardia trophozoite proliferation”. The pEC50 in test [1] (Giardia duodenalis) is 5.13. Besides, in test [2], the pIC50 was 5.22 and the “Activity against recombinant GlPDE” value is on record as “showed promising activity against GlPDE”.
Take `COc1ccc(C2CNC(=O)C2)cc1OC1CCCC1` (stereo not drawn) [Rolipram, rolipram]: in test [1] (Giardia duodenalis), the pEC50 was < 4.30. Besides, the negative logarithm of the IC50 (pIC50) in test [2] (read-out: Giardia PDE IC50) was < 4.00.
With `CCCc1nn(C)c2c(=O)[nH]c(-c3cc(S(=O)(=O)N4CCN(C)CC4)ccc3OCC)nc12` [Sildenafil, sildenafil citrate], in test [1] (Giardia duodenalis), the pEC50 was < 4.30. Also, the negative logarithm of the IC50 (pIC50) in test [2] was < 4.00.
Consider `CN1CC(=O)N2[C@H](c3ccc4c(c3)OCO4)c3[nH]c4ccccc4c3C[C@@H]2C1=O` [Tadalafil, tadalafil], for which the negative-log EC50 (pEC50) in test [1] (Giardia duodenalis) was < 4.30. Besides, in test [2] (read-out: Giardia PDE IC50), the negative-log IC50 (pIC50) is < 4.00.
On to `COc1cc2c(cc1OC)-c1c/c(=N\c3c(C)cc(C)cc3C)n(C)c(=O)n1CC2` [Trequinsin, trequinsin], for which the negative logarithm of the EC50 (pEC50) in test [1] (Giardia duodenalis) is < 4.30. Also, in test [2], the pIC50 is < 4.00.
The like results for `CCOC(=O)C1=C[C@]2(CC)CCCN3CCc4c(n1c1ccccc41)[C@@H]32` [Vinpocetine, vinpocetine] were, in that order, 4.79 and < 4.00.
In the case of `CCCOc1ccccc1-c1nc2nn[nH]c2c(=O)[nH]1` [Zaprinast, zaprinast], the negative-log EC50 (pEC50) in test [1] (Giardia duodenalis) is < 4.30. Further, the pIC50 in test [2] (read-out: Giardia PDE IC50) is < 4.00.
As for `COc1cc(-c2ccc(=O)[nH]n2)ccc1OC(F)F` [Zardaverine, zardaverine], in test [1] (Giardia duodenalis), the pEC50 was < 4.30. Moreover, the negative logarithm of the IC50 (pIC50) in test [2] was < 4.00.
Consider `Nc1nc2c(ncn2[C@@H]2O[C@@H]3COP(=O)(O)O[C@H]3[C@H]2O)c(=O)[nH]1` [cGMP], for which, in test [2] (recombinant GlPDE(aa588-1371)), the “Acceptance as substrate by GlPDE” value is “does not accept cGMP as a substrate”.
